Earlier results in US11999963B2, “Pseudomonas protegens and products thereof to control bacterial panicle blight of rice” (priority 2020, dated 2024).

Tested on: Pythium ultimum
Conditions: Howell & Stipanovic, 1980; Maurhofer et al., 1994

O=C(c1cc(Cl)c(Cl)[nH]1)c1c(O)cccc1O [Pyoluteorin, pyoluteorin]
activity against Pythium ultimum: had activity
